In patent US12729225B2, “Non-canonical SWI/SNF complex and uses thereof” (Dana-Farber Cancer Institute, Inc., priority 2018, dated 2026):
Where “and” joins values, the source holds several entries; their conditions need not be identical. Identical values can stand only once. Entries after “also recorded” stand apart in the source; their conditions may differ.

Experiments:
[1] = tested on: SYO-1 synovial sarcoma cells; experiment: Proliferation curves (cell counts, Vi-CELL XR) in SYO-1 cells; assay type: cell-based, human; details: for cell count: three replicates
Description: (§1) HEK-293T, G401, TTC1240, ESX, IMR-90, BJ Fibroblast, CRL7250, and NCIH-1437 cells were grown in DMEM (Gibco®) supplemented with 10% FBS, 1% GlutaMAX™ (Gibco®), and 1% penicillin-streptomycin (Gibco®). ES-2 cells were grown in McCoy's 5A (Gibco®) supplemented with 10% FBS, 1% GlutaMA™ (Gibco®), and 1% penicillin-streptomycin (Gibco®). EoL-1 and MOLM-13 were grown in RPMI (Gibco) supplemented with 10% FBS, 1% GlutaMAX™ (Gibco®), and 1% penicillin-streptomycin (Gibco®). RD were cultured in DMEM (Gibco®) supplemented with 10% FBS. HCT116 were grown in McCoy's 5A (Gibco®) supplemented with 10% FBS. Calu-6 were grown in EMEM (ATCC® 30-2003) supplemented with 10% FBS. SYO-1 was grown in DMEM without sodium pyruvate (Gibco®) supplemented with 10% FBS, 1% GlutaMAX™ (Gibco®), and 1% penicillin-streptomycin (Gibco®).
ShRNA or gene delivery vectors, psPAX2, and pMD2.g were transfected into […] cells at a ratio of 4:3:1 using PEI (Polysciences, Inc.). Media was filtered through 0.4 micron filters 72 h post transfection and lentiviral particles were concentrated at 20,000 rpm for 2.5 h at 4° C. Lentiviral particles were resuspended in 200 μl PBS and cells were transduced using 1:1000 polybrene (Santa Cruz Biotechnology, cat. sc-134220). Two days post-infection, cells were selected with 2 μg/mL puromycin or 10 μg/mL blasticidin.
(§2) 25,000-40,000 cells were plated per well of 12 well plates, or 50,000-60,000 per 10 cm plate, depending on cell line. Cell counts were performed in biological triplicate using a Vi-CELL™ XR Cell Counter (Beckman Coulter) on days indicated.

[2] = tested on: TTC1240 malignant rhabdoid tumor cells; experiment: Proliferation curves (cell counts) in TTC1240 cells; assay type: cell-based, human; details: for Proliferation curve data for FIG. 6H (TTC1240): three replicates
Description: as §1, §2

[3] = tested on: G401 MRT cells; experiment: Proliferation curves (cell counts) in G401 cells; assay type: cell-based, human; details: for Proliferation curve data for FIG. 5K (G401): three replicates
Description: as §1, §2

[4] = tested on: ESX epithelioid sarcoma (SMARCB1-intact) cells; experiment: Proliferation curves (cell counts) in ESX cells; assay type: cell-based, human; details: dBRD9 250 nM vs DMSO
Description: as §1, §2

[5] = tested on: SYO-1 synovial sarcoma cells; experiment: RNA-seq gene expression profiling in SYO-1 cells; assay type: cell-based, human; details: SYO-1, dBRD9 (6 day)
Description: (§3) RNA was collected from 2 million cells per condition, in biological duplicate, using the RNeasy® Mini Kit (QIAGEN) according to manufacturer's protocol.
(§4) Library preparation and sequencing of ChIP DNA and RNA was performed by the Molecular Biology Core Facilities at the Dana-Farber Cancer Institute (75 bp single end on Illuminia Nextseq 500).
(§5) RNA-seq data reads were mapped using default parameters to hg19 using STAR (Dobin, et al. (2013) Bioinformatics 29:15-21) version 2.5.2a.
(§6) RPKM values were calculated using GFOLD version 1.1.4 (Feng et al. (2012) Bioinformatics 28:2782-2788). Unless otherwise noted, log 2 fold change and Bonferri-corrected p values were generated using DESEQ2 v1.16.1, with reads mapped using RSUBREAD (Liao et al. (2013) Nucleic Acids Res. 41:e108) v1.26.1. […] All RNA-seq experiments were performed in biological replicate. Quality control metrics are available in Table 7.
(§7) The input for Gene Set Enrichment Analysis (GSEA) (Subramanian et al. (2005) Proc. Nat. Acad. Sci. U.S.A 102:15545-15550) was created by calculating the log 2 fold change between the mean RPKM of the replicates in each condition+1. […] GSEA Preranked was run over these files with default settings.

[6] = tested on: CRL7250 human fibroblast cells; experiment: RNA-seq of SS18-SSX-mediated gene activation in CRL7250 fibroblasts; assay type: cell-based; details: CRL7250 fibroblasts expressing V5-SS18-SSX1, with dBRD9
Description: as §3, §4, §5, §6, §7

[7] = tested on: SMARCA4; experiment: ChIP-seq SMARCA4 occupancy in TTC1240 cells (spike-in normalized, DiffBind); assay type: cell-based, human; details: TTC1240, dBRD9 250 nM vs DMSO
Description: (§8) Cells were fixed in 1% formaldehyde (Sigma Aldrich, F8775) for 10 min at 37° C. and quenched with 125 mM glycine for 5 min at 37° C. Cells were subsequently washed with cold PBS and stored at −80° C. until use. 10M cells per ChTP were used for EoL-1, MOLM-13, and Jurkat cell lines, and 5M cells per ChIP were used for SYO-1 and TTC1240 cell lines. Nuclei were extracted and chromatin was sonicated using the adaptive focused acoustics technology with a Covaris sonicator. Sonicated chromatin was used in immunoprecipitation reactions with indicated antibodies (Table 5) overnight followed by capture using Protein G Dynabeads (Thermo Fisher). […]
(§9) For alignment of ChIP-seq data, Bowtie2, version 2.1.0 (Langmead & Salzberg (2012) Nat. Methods 9:357-359) was used to map reads to the hg19 human reference genome, using the parameter −k l.
For spike-in normalization, Drosophila DNA was aligned to the dm3 genome using Bowtie2 version 2.1.0 with the parameter −k l. Duplicated reads were removed using samtools rmdup with the −b option. (SAMtools v1.3.1) As per manufacturer instructions, normalization ratios were calculated using the ratio of the total number of non-redundant mapped reads in each sample in comparison to the sample with the fewest non-redundant mapped reads. […]

[8] = tested on: SMARCA4; experiment: ChIP-seq SMARCA4 occupancy in MOLM-13 cells; assay type: cell-based, human; details: MOLM13 (BAF-intact), dBRD9
Description: as §8, with “Fisher). For ChIP-seq using spike-in chromatin, 15 ng of spike-in Drosophila chromatin (Active Motif, cat #530830) was added to each sample with 2 μg of spike-in antibody (Active Motif, cat #61686).” for “Fisher).”
as §9
MACS2 (Zhang et al. (2008) Genome Biol. 9:R137) version 2.1.0 was used to call peaks against input with a cutoff of q=0.001. […] For TTC1240 SMARCA4 tracks shown, the bedGraph file values were multiplied by the spike-in normalization ratios calculated as described above.

[9] = tested on: TTC1240 malignant rhabdoid tumor cells; experiment: RNA-seq gene expression in TTC1240 cells; assay type: cell-based, human; details: TTC1240, 7 days of 250 nM dBRD9
Description: as §3, §4, §5, §6
Genes associated with MRT superenhancers were downloaded from Chun et al. (Chun et al. (2016) Cancer Cell 29:394-406). Differential expression files of genes between MRT and normal tissues were downloaded from Chun et al., genes that were overexpressed in MRT with Bonferroni-adjusted p-value<0.01 were considered overexpressed in MRT.

[10] = tested on: MOLM-13 cells; experiment: RNA-seq gene expression in MOLM-13 cells; assay type: cell-based, human; details: MOLM-13 (BAF-intact), 6 days of dBRD9
Description: as §3, §4, §5, §6

## COc1cc(-c2cn(C)c(=O)c3cnccc23)cc(OC)c1CN(C)CC(=O)NCCOCCOCCNc1cccc2c1C(=O)N(C1CCC(=O)NC1=O)C2=O (centres unmarked) [dBRD9, 2-((2,6-dimethoxy-4-(2-methyl-1-oxo-1,2-dihydro-2,7-naphthyridin-4-yl)benzyl)(methyl)amino)-N-(2-(2-(2-((2-(2,6-dioxopiperidin-3-yl)-1,3-dioxoisoindolin-4-yl)amino)ethoxy)ethoxy)ethyl) acetamide]
[1]; Day 0, second block
  cell count: 0.05
[1]; Day 1, first block
  cell count: 0.03089 and 0.03603 and 0.03282
[1]; Day 4, first block
  cell count: 0.1506 and 0.1319 and 0.1377
[1]; Day 4, second block
  cell count: 0.171 and 0.18 and 0.216
[1]; Day 6, first block
  cell count: 0.2722 and 0.3153 and 0.2555
[1]; Day 7, second block
  cell count: 0.36 (2×) and 0.42
[1]; Day 8, first block
  cell count: 0.5521 and 0.5701 and 0.5147
[1]; Day 10, second block
  cell count: 1.17 and 1.38 and 1.14
[1]; Day 13, second block
  cell count: 2.3 and 2.21 and 2.13
[1]; SYO-1, dBRD9 500 nM (FIG. 6F) vs DMSO
  cell proliferation upon dBRD9 treatment: attenuation of cell proliferation; also recorded: proliferative attenuation
[2]; Day 1, first block
  Proliferation curve data for FIG. 6H (TTC1240): 0.01352 and 0.01738 and 0.01416
[2]; Day 1, second block
  Proliferation curve data for FIG. 6H (TTC1240): 0.05469 (2×) and 0.03282
[2]; Day 3, first block
  Proliferation curve data for FIG. 6H (TTC1240): 0.03024 and 0.04118 and 0.0296
[2]; Day 3, second block
  Proliferation curve data for FIG. 6H (TTC1240): 0.2709 and 0.2793 and 0.2619
[2]; Day 5, first block
  Proliferation curve data for FIG. 6H (TTC1240): 0.05791 and 0.06311 and 0.0534
[2]; Day 5, second block
  Proliferation curve data for FIG. 6H (TTC1240): 0.9207 and 0.9419 and 0.9374
[2]; Day 7, first block
  Proliferation curve data for FIG. 6H (TTC1240): 0.1853 and 0.2336 and 0.1628
[2]; Day 7, second block
  Proliferation curve data for FIG. 6H (TTC1240): 2.184 and 2.334 and 2.133
[2]; TTC1240 (SMARCB1-deficient MRT), dBRD9 250 nM vs DMSO
  proliferation upon dBRD9 treatment: reduced proliferation
[3]; Day 1, first block
  Proliferation curve data for FIG. 5K (G401): 0.04568 and 0.02188 and 0.02252
[3]; Day 1, second block
  Proliferation curve data for FIG. 5K (G401): 0.1114 and 0.1126 and 0.1094
[3]; Day 3, first block
  Proliferation curve data for FIG. 5K (G401): 0.1287 (2×) and 0.1558
[3]; Day 3, second block
  Proliferation curve data for FIG. 5K (G401): 0.48 and 0.5096 and 0.442
[3]; Day 5, first block
  Proliferation curve data for FIG. 5K (G401): 0.453 and 0.5533 and 0.4292
[3]; Day 5, second block
  Proliferation curve data for FIG. 5K (G401): 1.005 and 1.058 and 0.9696
[3]; Day 7, first block
  Proliferation curve data for FIG. 5K (G401): 0.7669 and 0.9773 and 0.8281
[3]; Day 7, second block
  Proliferation curve data for FIG. 5K (G401): 1.468 and 1.621 and 1.556
[3]; G401 (SMARCB1-deficient MRT), dBRD9 250 nM vs DMSO
  proliferation upon dBRD9 treatment: reduced proliferation
[4]
  reduced proliferation upon dBRD9 treatment: did not
[5]
  expression of genes closest to fusion-dependent sites: did not change
[6]
  SS18-SSX-mediated gene activation: did not attenuate
[7]
  SMARCA4 occupancy (ChIP-seq): significant decrease
[8]
  loss in SMARCA4 occupancy (ChIP-seq): did not exhibit similar loss
[9]
  expression of JUND, VGF, ID3, HOXC9, CREB3L1: significantly downregulated
[10]
  preferential downregulation of genes enriched for dependencies (CERES): did not result in preferential downregulation
